These results are taken from patent US20250353819A1, “ARYL HYDANTOIN COMPOUNDS AND METHODS OF USE” (priority 2022, published 2025).

Like-named read-outs stand apart in the source and are kept apart here.

Data set [1] is described as follows: In vitro metabolic stability, mouse liver microsomes. The format is in vitro ADME. As for the experimental part: (§1) In Vitro Metabolic Stability. As described by Charman et al. (2020), metabolic stability assays were performed by incubating test compounds in liver microsomes at 37° C. and 0.4 mg/mL protein concentration. The metabolic reaction was initiated by the addition of an NADPH-regenerating system and quenched at various time points over a 60 min incubation period by the addition of acetonitrile containing diazepam as internal standard. Control samples (containing no NADPH) were included (and quenched at 2, 30 and 60 min) to monitor for potential degradation in the absence of cofactor.

Data set [2] is described as follows: In vitro metabolic stability, human liver microsomes. The format is in vitro ADME. As for the experimental part:
as §1

A short description of data set [3]: Mouse exposure / pharmacokinetic studies. Type of data set: in vivo, mice. As to conditions: male, Swiss outbred, mouse, in vivo.
The nature of data set [4]: Partition coefficient (Log D) by gradient HPLC. The format is physicochemical. From the text: Partition Coefficient. Partition coefficient values (Log D) of the test compounds were estimated by correlation of their chromatographic retention properties against the characteristics of a series of standard compounds with known partition coefficient values using gradient HPLC (modification of a method reported by Lombardo et al., 2001).

The nature of data set [5]: Kinetic solubility (nephelometry). The format is physicochemical. As for the experimental part:
Kinetic Solubility. Compounds in DMSO (10 mg/mL) were diluted into either pH 6.5 phosphate buffer or 0.01 M HCl (approx. pH 2.0) with the final DMSO concentration being 1%. Samples were then analysed via nephelometry to determine a solubility range (Bevan and Lloyd, 2000).

Another data set relates to LAPC4 cells. The data set is described as follows: Androgen-dependent cell-based assay (DHT, LAPC4). As to conditions: Homo sapiens. As for the experimental part:
Androgen-Dependent Cell-based Assay. As described by Jones and Diamond (2008), LAPC4 cells were cultured in phenol red free RPMI 1640 media supplemented with antibiotics and 10% FBS. […] […] Mean-effect plots (log[compound] vs. log[fractional effect]) were generated to determine the IC50 values for each test compound or combinations of test compounds at constant ratios.

For data set [6], the system named is S. mansoni. The data set is described as follows: Antischistosomal screen in S. mansoni-infected mice. Type of data set: in vivo, Schistosoma mansoni. Particulars: for ED50: Schistosoma mansoni; for Worm burden reduction (WBR): single oral dose Ro 13-3978 100 mg/kg, praziquantel 400 mg/kg. From the text:
Antischistosomal Screen. […] As described by Lombardo et al. (2019), cercariae of S. mansoni were obtained from infected Biomphalaria glabrata. By way of example, NMRI mice were infected subcutaneously with approximately 100 S. mansoni cercariae. […] Untreated mice (n=8) served as controls. At 21 d post-treatment, animals were killed by the CO2 method and dissected. Worms were removed by picking, then sexed and counted.

In data set [7] the test system is S. mansoni. Particulars: cited from earlier work.
The test system of the next data set is androgen-receptor. The data set is described as follows: DHT-induced (KLK3, FKBP5) and DHT-repressed (ZFP36L1) transcripts in LAPC4 cells. Type of data set: cell-based. As to conditions: Compound IE up to 10 μM.
[8] abbreviates: pH 7.4, chromatographic estimate, read-out: gLogD7.4.
The mark [9] stands for this setting: DHT-induced, androgen-dependent LAPC4 prostate cancer cell line, read-out: LAPC4 IC50.
[10] abbreviates: adult stage, single oral dose, mouse model, read-out: S. mansoni ED50, adult.
Where [11] appears, read: juvenile stage, single oral dose, mouse model, read-out: S. mansoni ED50, juvenile.

Consider `CC1(C(F)(F)F)NC(=O)N(c2ccc(F)c(C(F)(F)F)c2)C1=O` (stereo not drawn) [IA, 3-(4-Fluoro-3-(trifluoromethyl)phenyl)-5-methyl-5-(trifluoromethyl)imidazolidine-2,4-dione], for which the microsomal CLint is below 7 µL/min/mg in data set [1] (mouse liver microsomes, read-out: m CLint) and below 7 µL/min/mg in [2] (human liver microsomes, read-out: h CLint). In addition, in data set [3] (100 mg/kg PO in mice, read-out: AUC0-last), the AUC(0-t) is 966 µg·h/mL. Besides, the Cmax in data set [3] (100 mg/kg PO in mice, read-out: Cmax) came to 28000 ng/mL. Besides, the chromatographic logD in [4] (setting [8]) is 3.5. In addition, the Sol2.0 in data set [5] (kinetic solubility, 0.01 M HCl (approx. pH 2.0)) is listed as 25-50/25-50 μg/mL. The Sol6.5 in data set [5] (kinetic solubility, pH 6.5 phosphate buffer) was 25-50/25-50 μg/mL. In addition, the IC50 with LAPC4 cells (LAPC4, read-out: LAPC4 IC50) was 5.2 µM. Moreover, the ED50 with S. mansoni [6] (po, read-out: S. mansoni ED50, adult) came out at 14 mg/kg; in the data set with S. mansoni [6] (po, read-out: S. mansoni ED50, juvenile) it was 70 mg/kg.

On to `[2H]C([2H])([2H])C1(C([2H])([2H])[2H])NC(=O)N(c2ccc(F)c(C(F)(F)F)c2)C1=O` [IB, 3-(4-Fluoro-3-(trifluoromethyl)phenyl)-5,5-bis(methyl-d3)imidazolidine-2,4-dione], for which the microsomal CLint in data set [1] (mouse, microsomes) was below 7 µL/min/mg; in [2] (human, microsomes), below 7 µL/min/mg. The same compound had an AUC(0-t) in data set [3] (po, 100 mg/kg) of 1820 µg·h/mL. This compound displayed a Cmax in data set [3] (po, 100 mg/kg) of 43000 ng/mL. Moreover, the chromatographic logD in data set [4] (setting [8]) was 2.7. In addition, the Sol2.0 in data set [5] (pH 2) is >100/>100 μg/mL. Moreover, the Sol6.5 in data set [5] (pH 6.5) is recorded as >100/>100 μg/mL. Also, the half-inhibitory concentration (IC50) in the data set on LAPC4 cells (setting [9]) was found to be 13 µM. Further, the median effective dose (ED50) stood at 7.3 mg/kg with S. mansoni [6] (setting [10]) and 73 mg/kg in the data set with S. mansoni [6] (setting [11]).

Turning to `CC1(C(F)F)NC(=O)N(c2ccc(F)c(C(F)(F)F)c2)C1=O` (stereo not drawn) [ID, 5-(Difluoromethyl)-3-(4-fluoro-3-(trifluoromethyl)phenyl)-5-methylimidazolidine-2,4-dione], the microsomal CLint was below 7 µL/min/mg in [1] (mouse, microsomes) and below 7 µL/min/mg in data set [2] (human, microsomes). This compound yielded an AUC(0-t) in [3] (po, 100 mg/kg) of 1650 µg·h/mL. This compound returned a Cmax in [3] (po, 100 mg/kg) of 42000 ng/mL. Besides, the chromatographic logD in data set [4] (pH 7.4) came out at 3.2. Also, the Sol2.0 in data set [5] (pH 2) is recorded as 50-100/50-100 μg/mL. In data set [5] (pH 6.5), the Sol6.5 was 50-100/50-100 μg/mL. In the data set with LAPC4 cells (setting [9]), the IC50 worked out at 4.2 µM. Also, the results for the median effective dose (ED50) in the data set on S. mansoni [6] (setting [10]) and in the data set on S. mansoni [6] (setting [11]) were 9 mg/kg and 88 mg/kg, respectively.

Take `O=C(C1CCCCC1)N1CC(=O)N2CCc3ccccc3C2C1` (stereo not drawn) [Praziquantel, praziquantel, reference compound]: in the data set on S. mansoni [7] (schistosome mouse model, literature), the “activity against juvenile stages of the parasite” value was “no significant activity”. Moreover, the “Worm burden reduction (WBR)” value is given as 83% in the data set on S. mansoni [6] (NOD-SCID (Prkdc^scid) mice); 83% in the data set on S. mansoni [6] (NOD-SCID (Prkdc^scid) mice, listed as Praziquantel (PZQ)); 96% in the data set on S. mansoni [6] (outbred NMRI mice).

In the case of `CC1(C)NC(=O)N(c2ccc([N+](=O)[O-])c(C(F)(F)F)c2)C1=O` [nilutamide, reference compound], the “levels of DHT-induced (KLK3, FKBP5) and DHT-repressed (ZFP36L1) transcripts” value in the data set with androgen-receptor was “inhibited the DHT-induced increase of KLK3 and FKBP5 and prevented the repression of ZFP36L1”. In the data set with S. mansoni [7] (Keiser et al., 2010), the antischistosomal activity entry is recorded as “very weak”.
